Measurements from US12691112B2, “FGFR tyrosine kinase inhibitors for the treatment of urothelial carcinoma” (Janssen Pharmaceutica NV, priority 2019, dated 2026).
Like-named read-outs stand apart in the source and are kept apart here.

System: subjects with metastatic or surgically unresectable urothelial cancer
Conditions: all-causality
Procedure: Study treatment was administered on 28-day cycles. […] Patients were randomized 1:1 to 28-day cycles to the following 2 regimens until a regimen was selected for further study: Regimen 1 (10 mg once daily intermittent (7 days on/7 days); Regimen 2 (6 mg once daily continuous). Randomization was stratified according to performance status (0 to 1 vs. 2), hemoglobin value (<10 vs. ≥10 g per dl), FGFR alteration type (mutation vs. fusion), prior treatment status (chemotherapy-resistant vs. chemotherapy naïve), and disease distribution (presence or absence of visceral [liver, lung, bone]metastases). Starting dose selection was based on phase 1 efficacy and tolerability.
Based on interim analysis and pharmacokinetic-pharmacodynamic modeling of serum phosphate levels, starting dose was increased to 8 mg per day continuous (Regimen 3). Thus, after interim analysis, this became a single-arm study. […] Treatment continued until disease progression or unacceptable adverse event(s) per investigator.
Safety was evaluated based on clinical laboratory tests, physical exams, electrocardiograms, and ophthalmology examinations. Adverse events and abnormalities were assessed by investigator and graded per NCI CTCAE v.4.0
Prophylactic measures were taken to minimize risk of common adverse events related to FGFR inhibition. To reduce risk of hyperphosphatemia, a low-phosphate diet was recommended for all patients (600 to 800 mg of dietary phosphate intake per day). To reduce the risk of skin effects, the application of alcohol-free emollient moisturizing cream and avoidance of unnecessary exposure to sunlight, soap, perfumed products, and hot baths was recommended. Patients were asked to keep their fingers and toes clean and nails trimmed to reduce risk of nail effects.
Additional ophthalmology examinations were performed if clinically indicated.

COc1cc(OC)cc(N(CCNC(C)C)c2ccc3ncc(-c4cnn(C)c4)nc3c2)c1 [erdafitinib, N-(3,5-dimethoxy-phenyl)-N′-(1-methylethyl)-N-[3-(1-methyl-1H-pyrazol-4-yl)quinoxalin-6-yl]ethane-1,2-diamine]
Constipation, grade ≥ 3 (8 mg continuous, n = 99): 1 no.
Decreased appetite, any grade (8 mg continuous, n = 99): 38 no.
Decreased appetite, grade 1 (8 mg continuous, n = 99): 18 no.
Decreased appetite, grade 2 (8 mg continuous, n = 99): 20 no.
Decreased appetite, grade ≥ 3 (8 mg continuous, n = 99): 0 no.
Diarrhea, any grade (8 mg continuous, n = 99): 50 no.
Diarrhea, grade 1 (8 mg continuous, n = 99): 31 no.
Diarrhea, grade 2 (8 mg continuous, n = 99): 15 no.
Diarrhea, grade ≥ 3 (8 mg continuous, n = 99): 4 no.
Dry eye, any grade (8 mg continuous, n = 99): 19 no.
Dry eye, grade 1 (8 mg continuous, n = 99): 14 no.
Dry eye, grade 2 (8 mg continuous, n = 99): 4 no.
Dry eye, grade ≥ 3 (8 mg continuous, n = 99): 1 no.
Dry mouth, any grade (8 mg continuous, n = 99): 45 no.
Dry mouth, grade 1 (8 mg continuous, n = 99): 34 no.
Dry mouth, grade 2 (8 mg continuous, n = 99): 11 no.
Dry mouth, grade ≥ 3 (8 mg continuous, n = 99): 0 no.
Dry skin, any grade (8 mg continuous, n = 99): 32 no.
Dry skin, grade 1 (8 mg continuous, n = 99): 24 no.
Dry skin, grade 2 (8 mg continuous, n = 99): 8 no.
Dry skin, grade ≥ 3 (8 mg continuous, n = 99): 0 no.
Dysgeusia, any grade (8 mg continuous, n = 99): 37 no.
Dysgeusia, grade 1 (8 mg continuous, n = 99): 23 no.
Dysgeusia, grade 2 (8 mg continuous, n = 99): 13 no.
Dysgeusia, grade ≥ 3 (8 mg continuous, n = 99): 1 no.
Dyspepsia, any grade (8 mg continuous, n = 99): 11 no.
Dyspepsia, grade 1 (8 mg continuous, n = 99): 10 no.
Dyspepsia, grade 2 (8 mg continuous, n = 99): 1 no.
Dyspepsia, grade ≥ 3 (8 mg continuous, n = 99): 0 no.
Dyspnea, any grade (8 mg continuous, n = 99): 8 no.
Dyspnea, grade 1 (8 mg continuous, n = 99): 4 no.
Dyspnea, grade 2 (8 mg continuous, n = 99): 2 no.
Dyspnea, grade ≥ 3 (8 mg continuous, n = 99): 2 no.
Fatigue, any grade (8 mg continuous, n = 99): 32 no.
Fatigue, grade 1 (8 mg continuous, n = 99): 12 no.
Fatigue, grade 2 (8 mg continuous, n = 99): 18 no.
Fatigue, grade ≥ 3 (8 mg continuous, n = 99): 2 no.
Hand-foot syndrome, any grade (8 mg continuous, n = 99): 23 no.
Hand-foot syndrome, grade 1 (8 mg continuous, n = 99): 6 no.
Hand-foot syndrome, grade 2 (8 mg continuous, n = 99): 12 no.
Hand-foot syndrome, grade ≥ 3 (8 mg continuous, n = 99): 5 no.
Hematuria, any grade (8 mg continuous, n = 99): 10 no.
Hematuria, grade 1 (8 mg continuous, n = 99): 7 no.
Hematuria, grade 2 (8 mg continuous, n = 99): 1 no.
Hematuria, grade ≥ 3 (8 mg continuous, n = 99): 2 no.
Hyperphosphatemia, any grade (8 mg continuous, n = 99): 76 no.
Hyperphosphatemia, grade 1 (8 mg continuous, n = 99): 53 no.
Hyperphosphatemia, grade 2 (8 mg continuous, n = 99): 21 no.
Hyperphosphatemia, grade ≥ 3 (8 mg continuous, n = 99): 2 no.
Hypomagnesemia, any grade (8 mg continuous, n = 99): 10 no.
Hypomagnesemia, grade 1 (8 mg continuous, n = 99): 9 no.
Hypomagnesemia, grade 2 (8 mg continuous, n = 99): 1 no.
Hypomagnesemia, grade ≥ 3 (8 mg continuous, n = 99): 0 no.
Hyponatremia, any grade (8 mg continuous, n = 99): 12 no.
Hyponatremia, grade 1 (8 mg continuous, n = 99): 1 no.
Hyponatremia, grade 2 (8 mg continuous, n = 99): 0 no.
Hyponatremia, grade ≥ 3 (8 mg continuous, n = 99): 11 no.
Insomnia, any grade (8 mg continuous, n = 99): 7 no.
Insomnia, grade 1 (8 mg continuous, n = 99): 4 no.
Insomnia, grade 2 (8 mg continuous, n = 99): 3 no.
Insomnia, grade ≥ 3 (8 mg continuous, n = 99): 0 no.
Lacrimation increased, any grade (8 mg continuous, n = 99): 11 no.
Lacrimation increased, grade 1 (8 mg continuous, n = 99): 8 no.
Lacrimation increased, grade 2 (8 mg continuous, n = 99): 3 no.
Lacrimation increased, grade ≥ 3 (8 mg continuous, n = 99): 0 no.
Nail dystrophy, any grade (8 mg continuous, n = 99): 16 no.
Nail dystrophy, grade 1 (8 mg continuous, n = 99): 5 no.
Nail dystrophy, grade 2 (8 mg continuous, n = 99): 5 no.
Nail dystrophy, grade ≥ 3 (8 mg continuous, n = 99): 6 no.
Nausea, any grade (8 mg continuous, n = 99): 20 no.
Nausea, grade 1 (8 mg continuous, n = 99): 13 no.
Nausea, grade 2 (8 mg continuous, n = 99): 6 no.
Nausea, grade ≥ 3 (8 mg continuous, n = 99): 1 no.
Onycholysis, any grade (8 mg continuous, n = 99): 18 no.
Onycholysis, grade 1 (8 mg continuous, n = 99): 6 no.
Onycholysis, grade 2 (8 mg continuous, n = 99): 10 no.
Onycholysis, grade ≥ 3 (8 mg continuous, n = 99): 2 no.
Onychomadesis, any grade (8 mg continuous, n = 99): 7 no.
Onychomadesis, grade 1 (8 mg continuous, n = 99): 2 no.
Onychomadesis, grade 2 (8 mg continuous, n = 99): 5 no.
Onychomadesis, grade ≥ 3 (8 mg continuous, n = 99): 0 no.
Oropharyngeal pain, any grade (8 mg continuous, n = 99): 10 no.
Oropharyngeal pain, grade 1 (8 mg continuous, n = 99): 8 no.
Oropharyngeal pain, grade 2 (8 mg continuous, n = 99): 1 no.
Oropharyngeal pain, grade ≥ 3 (8 mg continuous, n = 99): 1 no.
Pain in extremity, any grade (8 mg continuous, n = 99): 12 no.
Pain in extremity, grade 1 (8 mg continuous, n = 99): 10 no.
Pain in extremity, grade 2 (8 mg continuous, n = 99): 2 no.
Pain in extremity, grade ≥ 3 (8 mg continuous, n = 99): 0 no.
Paronychia, any grade (8 mg continuous, n = 99): 17 no.
Paronychia, grade 1 (8 mg continuous, n = 99): 3 no.
Paronychia, grade 2 (8 mg continuous, n = 99): 11 no.
Paronychia, grade ≥ 3 (8 mg continuous, n = 99): 3 no.
Peripheral edema, any grade (8 mg continuous, n = 99): 9 no.
Peripheral edema, grade 1 (8 mg continuous, n = 99): 5 no.
Peripheral edema, grade 2 (8 mg continuous, n = 99): 3 no.
Peripheral edema, grade ≥ 3 (8 mg continuous, n = 99): 1 no.
Pyrexia, any grade (8 mg continuous, n = 99): 13 no.
Pyrexia, grade 1 (8 mg continuous, n = 99): 8 no.
Pyrexia, grade 2 (8 mg continuous, n = 99): 5 no.
Pyrexia, grade ≥ 3 (8 mg continuous, n = 99): 0 no.
Retinal detachment, any grade (8 mg continuous, n = 99): 5 no.
Retinal detachment, grade 1 (8 mg continuous, n = 99): 3 no.
Retinal detachment, grade 2 (8 mg continuous, n = 99): 2 no.
Retinal detachment, grade ≥ 3 (8 mg continuous, n = 99): 0 no.
Stomatitis, any grade (8 mg continuous, n = 99): 57 no.
Stomatitis, grade 1 (8 mg continuous, n = 99): 21 no.
Stomatitis, grade 2 (8 mg continuous, n = 99): 26 no.
Stomatitis, grade ≥ 3 (8 mg continuous, n = 99): 10 no.
Urinary tract infection, any grade (8 mg continuous, n = 99): 16 no.
Urinary tract infection, grade 1 (8 mg continuous, n = 99): 0 no.
Urinary tract infection, grade 2 (8 mg continuous, n = 99): 11 no.
Urinary tract infection, grade ≥ 3 (8 mg continuous, n = 99): 5 no.
Vision blurred, any grade (8 mg continuous, n = 99): 17 no.
Vision blurred, grade 1 (8 mg continuous, n = 99): 10 no.
Vision blurred, grade 2 (8 mg continuous, n = 99): 7 no.
Vision blurred, grade ≥ 3 (8 mg continuous, n = 99): 0 no.
Vomiting, any grade (8 mg continuous, n = 99): 13 no.
Vomiting, grade 1 (8 mg continuous, n = 99): 10 no.
Vomiting, grade 2 (8 mg continuous, n = 99): 1 no.
Vomiting, grade ≥ 3 (8 mg continuous, n = 99): 2 no.
Weight decreased, any grade (8 mg continuous, n = 99): 15 no.
Weight decreased, grade 1 (8 mg continuous, n = 99): 7 no.
Weight decreased, grade 2 (8 mg continuous, n = 99): 8 no.
Weight decreased, grade ≥ 3 (8 mg continuous, n = 99): 0 no.
Abdominal pain, any grade (10 mg intermittent, n = 33): 5 no.
Abdominal pain, grade 1 (10 mg intermittent, n = 33): 2 no.
Abdominal pain, grade 2 (10 mg intermittent, n = 33): 2 no.
Abdominal pain, grade ≥ 3 (10 mg intermittent, n = 33): 1 no.
Alanine aminotransferase increased, any grade (10 mg intermittent, n = 33): 1 no.
Alanine aminotransferase increased, grade 1 (10 mg intermittent, n = 33): 0 no.
Alanine aminotransferase increased, grade 2 (10 mg intermittent, n = 33): 1 no.
Alanine aminotransferase increased, grade ≥ 3 (10 mg intermittent, n = 33): 0 no.
Alopecia, any grade (10 mg intermittent, n = 33): 4 no.
Alopecia, grade 1 (10 mg intermittent, n = 33): 2 no.
Alopecia, grade 2 (10 mg intermittent, n = 33): 2 no.
Alopecia, grade ≥ 3 (10 mg intermittent, n = 33): 0 no.
Anemia, any grade (10 mg intermittent, n = 33): 8 no.
Anemia, grade 1 (10 mg intermittent, n = 33): 1 no.
Anemia, grade 2 (10 mg intermittent, n = 33): 1 no.
Anemia, grade ≥ 3 (10 mg intermittent, n = 33): 6 no.
Arthralgia, any grade (10 mg intermittent, n = 33): 7 no.
Arthralgia, grade 1 (10 mg intermittent, n = 33): 3 no.
Arthralgia, grade 2 (10 mg intermittent, n = 33): 2 no.
Arthralgia, grade ≥ 3 (10 mg intermittent, n = 33): 2 no.
Aspartate aminotransferase increased, any grade (10 mg intermittent, n = 33): 2 no.
Aspartate aminotransferase increased, grade 1 (10 mg intermittent, n = 33): 2 no.
Aspartate aminotransferase increased, grade 2 (10 mg intermittent, n = 33): 0 no.
Aspartate aminotransferase increased, grade ≥ 3 (10 mg intermittent, n = 33): 0 no.
Asthenia, any grade (10 mg intermittent, n = 33): 10 no.
Asthenia, grade 1 (10 mg intermittent, n = 33): 5 no.
Asthenia, grade 2 (10 mg intermittent, n = 33): 3 no.
Asthenia, grade ≥ 3 (10 mg intermittent, n = 33): 2 no.
Back pain, any grade (10 mg intermittent, n = 33): 5 no.
Back pain, grade 1 (10 mg intermittent, n = 33): 1 no.
Back pain, grade 2 (10 mg intermittent, n = 33): 1 no.
Back pain, grade ≥ 3 (10 mg intermittent, n = 33): 3 no.
Blood creatinine increased, any grade (10 mg intermittent, n = 33): 4 no.
Blood creatinine increased, grade 1 (10 mg intermittent, n = 33): 3 no.
Blood creatinine increased, grade 2 (10 mg intermittent, n = 33): 1 no.
Blood creatinine increased, grade ≥ 3 (10 mg intermittent, n = 33): 0 no.
Conjunctivitis, any grade (10 mg intermittent, n = 33): 4 no.
Conjunctivitis, grade 1 (10 mg intermittent, n = 33): 3 no.
Conjunctivitis, grade 2 (10 mg intermittent, n = 33): 1 no.
Conjunctivitis, grade ≥ 3 (10 mg intermittent, n = 33): 0 no.
Constipation, any grade (10 mg intermittent, n = 33): 14 no.
Constipation, grade 1 (10 mg intermittent, n = 33): 8 no.
Constipation, grade 2 (10 mg intermittent, n = 33): 6 no.
Constipation, grade ≥ 3 (10 mg intermittent, n = 33): 0 no.
Decreased appetite, any grade (10 mg intermittent, n = 33): 11 no.
Decreased appetite, grade 1 (10 mg intermittent, n = 33): 4 no.
Decreased appetite, grade 2 (10 mg intermittent, n = 33): 6 no.
